The results in this text go back to patent US9675592B2, “Methods and compositions for bacteria infections” (priority 2013, dated 2017).

In assay [1] the test system is test strain 923 pPvra-lux. Description: Secondary screen / synergy confirmation of Top 40, relative growth with oxacillin. As to conditions: Top 40 library, compound at maximum non-GI conc. The class given is cell-based, Staphylococcus aureus. The procedure:
In the secondary screen each microtiter plate contained either cells in TSB alone (16 replicates), cells with oxacillin (2 μg/mL, 31 replicates), or cells with test compound and oxacillin (2 μg/mL, 49 wells). Each compound was assayed in four separate biological replicates.
Synergy Confirmation of “Top 40”. […]

Assay [2] relates to vraSR promoter (Pvra-lux reporter in strain 923). The class given is cell-based, Staphylococcus aureus. As to conditions: for RL Ox avg: Top 40 library, with oxacillin, compound at maximum non-GI conc; for vraSR repressing synergist: overall class from syn and rep. The procedure: In the secondary screen each microtiter plate contained either cells in TSB alone (16 replicates), cells with oxacillin (2 μg/mL, 31 replicates), or cells with test compound and oxacillin (2 μg/mL, 49 wells). Each compound was assayed in four separate biological replicates. […]

For assay [3], the system named is test strain 923 pPvra-lux (USA300 MRSA). Description: Primary screen, relative growth in presence of oxacillin. As to conditions: compound 10 μM with oxacillin 2 μg/mL, absorbance 24 h, <0.50 = dead cells = hit.
The subject of assay [4] is test strain (923 pPvra-lux). Nature of the assay: Growth inhibition by compound alone (maximum non-growth-inhibitory concentration). The class given is cell-based, Staphylococcus aureus. As to conditions: compound alone; maximum concentration where it did NOT inhibit growth.
Assay [5] deals with vraSR promoter (Pvra-lux reporter in strain 923). Nature of the assay: Primary screen, relative luminescence (vraSR expression). The settings on record: primary screen, compound 10 μM with oxacillin 2 μg/mL; <0.50 = vraSR repressed = hit.

On to `Cc1ccc(C)c2sc(NC(=O)c3cccs3)nc12` [F0600-1305], for which the “RG Ox avg” value in assay [1] is reported as 0.94. Also, in assay [2], the “RL Ox avg” value is given as 0.15 and the vraSR repressing synergist is listed as 3. no effect. Besides, in assay [3], the “RG avg (relative growth)” value was 0.36. Also, the “maximum non-GI conc” value in assay [4] turned out to be 400 µg/mL. For the same molecule, the “RL avg (relative luminescence)” value in assay [5] was 0.22.
`CSc1cccc2sc(NC(=O)c3ccccc3NS(=O)(=O)c3ccc(C)cc3)nc12` [F2730-0247]: the “RG Ox avg” value in assay [1] was 0.23. Besides, in assay [2], the “RL Ox avg” value was determined as 0.15 and the vraSR repressing synergist was 1. confirmed. In addition, the “RG avg (relative growth)” value in assay [3] turned out to be 0.31. The “maximum non-GI conc” value in assay [4] was 400 µg/mL. For the same molecule, in assay [5], the “RL avg (relative luminescence)” value came to 0.16.
As for `Cn1cccc1C(CNC(=O)Nc1ccc(Cl)c(Cl)c1)N1CCOCC1` (stereo not drawn) [F5833-1551], in assay [1], the “RG Ox avg” value was determined as 0.99. Also, in assay [2], the “RL Ox avg” value was 0.56 and the vraSR repressing synergist came to 3. no effect. Moreover, the “RG avg (relative growth)” value in assay [3] is recorded as 0.01. For the same molecule, the “maximum non-GI conc” value in assay [4] was found to be 40 µg/mL. Further, in assay [5], the “RL avg (relative luminescence)” value is recorded as −0.03.
For the molecule `O=C(Nc1nnc(-c2ccccc2Cl)o1)c1sc2ccccc2c1Cl` [F1374-43], in assay [3], the “RG avg (relative growth)” value is 0.04. Besides, the “RL avg (relative luminescence)” value in assay [5] is listed as 0.35.
For the molecule `O=C(Nc1nnc(-c2cccs2)o1)c1cccc(C(F)(F)F)c1` [F1374-982], the “RG avg (relative growth)” value in assay [3] is recorded as 0.13. For the same molecule, the “RL avg (relative luminescence)” value in assay [5] turned out to be 0.35.
In the case of `O=C(Nc1nnc(-c2ccc(Cl)s2)o1)c1cc(-c2ccccc2)nc2ccccc12` [F1374-1094], the “RG avg (relative growth)” value in assay [3] is 0.03. For the same molecule, the “RL avg (relative luminescence)” value in assay [5] was determined as 0.52.
The corresponding values for `O=C(Nc1nnc(-c2ccc(Br)cc2)o1)c1ccc2ncsc2c1` [F2518-558] are −0.02 and −0.08.
In the case of `O=C(Nc1nnc(-c2ccccc2Cl)o1)c1cccc(Br)c1` [F1374-14], in assay [3], the “RG avg (relative growth)” value is 0.24. Moreover, the “RL avg (relative luminescence)” value in assay [5] is 0.38.
The like results for `O=C(Nc1nnc(-c2cc(Cl)sc2Cl)o1)c1ccc2ncsc2c1` [F1374-2676] were, in that order, 0.01 and 0.34.
Take `Cc1cccc(C(=O)Nc2nnc(-c3ccc(Br)cc3)o2)c1` [F2518-436]: the “RG avg (relative growth)” value in assay [3] is given as 0.00. Also, the “RL avg (relative luminescence)” value in assay [5] is listed as −0.06.
For `COc1cc(-c2nnc(NC(=O)c3ccc(S(=O)(=O)N(Cc4ccccc4)C(C)C)cc3)o2)cc(OC)c1OC` [F0559-328], the “RG avg (relative growth)” value in assay [3] is recorded as 0.15. Moreover, in assay [5], the “RL avg (relative luminescence)” value turned out to be 0.01.
Consider `COc1cc(OC)cc(C(=O)Nc2nnc(-c3ccc(Br)cc3)o2)c1` [F2518-451], for which, in assay [3], the “RG avg (relative growth)” value was −0.01. Further, the “RL avg (relative luminescence)” value in assay [5] is −0.10.
The corresponding values for `COc1cc(-c2nnc(NC(=O)c3cccc(Cl)c3)o2)cc(OC)c1OC` [F2517-7] are −0.03 and −0.11.
On to `O=C(Nc1nnc(-c2cccs2)o1)c1ccc(S(=O)(=O)N2CCCc3ccccc32)cc1` [F0559-350], for which the “RG avg (relative growth)” value in assay [3] is 0.43. In assay [5], the “RL avg (relative luminescence)” value came to 0.11.
As to `O=C(Nc1nnc(-c2ccccc2)o1)c1ccc(Br)s1` [F1374-875], the “RG avg (relative growth)” value in assay [3] is listed as 0.04. Moreover, the “RL avg (relative luminescence)” value in assay [5] is given as 0.30.
Take `CC1CC(C)CN(S(=O)(=O)c2ccc(C(=O)Nc3nnc(-c4ccc(Cl)s4)o3)cc2)C1` (stereo not drawn) [F0559-376]: the “RG avg (relative growth)” value in assay [3] was −0.08. For the same molecule, in assay [5], the “RL avg (relative luminescence)” value is on record as −0.02.
The like results for `O=C(Nc1nc(-c2ccccn2)cs1)c1cccc(Oc2ccccc2)c1` [F0447-264] were, in that order, −0.03 and −0.05.
`O=C(Nc1nnc(-c2ccc3c(c2)CCCC3)o1)c1nc2ccccc2s1` [F0608-570]: the “RG avg (relative growth)” value in assay [3] was −0.05. Further, the “RL avg (relative luminescence)” value in assay [5] is recorded as −0.07.
As to `Cc1ccc(Cc2nnc(NC(=O)c3ccc(S(=O)(=O)N(C)c4ccccc4)cc3)o2)c(C)c1` [F2368-431], in assay [3], the “RG avg (relative growth)” value is reported as −0.02. Also, the “RL avg (relative luminescence)” value in assay [5] is reported as −0.06.
For `O=C(Nc1nnc(-c2ccc3c(c2)CCCC3)o1)c1cccc(C(F)(F)F)c1` [F0608-575], the “RG avg (relative growth)” value in assay [3] is −0.02. Besides, in assay [5], the “RL avg (relative luminescence)” value is −0.09.
On to `O=C(Nc1nnc(-c2cc3ccccc3o2)o1)c1ccc(F)cc1` [F2273-390], for which the “RG avg (relative growth)” value in assay [3] was 0.27. In addition, the “RL avg (relative luminescence)” value in assay [5] came out at 0.20.
On to `COc1cccc2cc(C(=O)Nc3nnc(-c4cc(Cl)sc4Cl)o3)oc12` [F1374-2680], for which, in assay [3], the “RG avg (relative growth)” value was 0.00. In addition, the “RL avg (relative luminescence)” value in assay [5] came out at 0.42.
As to `O=C(Nc1nnc(-c2ccc(Br)s2)o1)c1ccc2ncsc2c1` [F5093-111], in assay [3], the “RG avg (relative growth)” value was −0.02. The “RL avg (relative luminescence)” value in assay [5] is −0.02.
Turning to `COc1ccc(-c2nnc(NC(=O)c3cc(Cl)sc3Cl)o2)cc1OC` [F2767-204], the “RG avg (relative growth)” value in assay [3] is −0.02. Moreover, the “RL avg (relative luminescence)” value in assay [5] was −0.09.
For `CCOc1cc(-c2nnc(NC(=O)C(c3ccccc3)c3ccccc3)o2)cc(OCC)c1OCC` [F2517-165], in assay [3], the “RG avg (relative growth)” value amounted to 0.31. Moreover, the “RL avg (relative luminescence)” value in assay [5] is recorded as −0.07.
The like results for `O=C(Nc1nnc(-c2ccc(Br)cc2)o1)c1cc(Cl)ccc1Cl` [F2518-481] were, in that order, 0.00 and −0.05.
The corresponding values for `O=C(Nc1nnc(-c2ccc(Br)s2)o1)c1nc2ccccc2s1` [F5093-37] are 0.02 and −0.03.
For `O=C(Nc1nnc(-c2ccc3c(c2)CCCC3)o1)c1cccs1` [F0608-554], the “RG avg (relative growth)” value in assay [3] was −0.04. Also, the “RL avg (relative luminescence)” value in assay [5] is given as −0.08.
For `CCN(CC)S(=O)(=O)c1ccc(C(=O)Nc2nnc(-c3ccc4c(c3)CCCC4)o2)cc1` [F0608-543], the “RG avg (relative growth)” value in assay [3] is −0.02. The “RL avg (relative luminescence)” value in assay [5] is on record as −0.08.
On to `Cc1ccc(NCC(O)Cn2c3ccc(Br)cc3c3cc(Br)ccc32)cc1` (stereo not drawn) [F0191-4604], for which the “RG avg (relative growth)” value in assay [3] was −0.07. Besides, the “RL avg (relative luminescence)” value in assay [5] is given as −0.06.
For the molecule `C=CCN(CC=C)S(=O)(=O)c1ccc(C(=O)Nc2nnc(-c3ccc(OC)cc3)o2)cc1` [F0559-189], the “RG avg (relative growth)” value in assay [3] is −0.05. For the same molecule, in assay [5], the “RL avg (relative luminescence)” value is on record as −0.08.
`CSc1ccc(-c2nnc(NC(=O)c3ccc(S(=O)(=O)N(C)Cc4ccccc4)cc3)o2)cc1` [F2645-405]: the “RG avg (relative growth)” value in assay [3] is 0.29. Besides, the “RL avg (relative luminescence)” value in assay [5] is on record as 0.57.
Turning to `O=C(Nc1nnc(-c2ccc(Br)cc2)o1)c1ccc2c(c1)CCCC2` [F2518-517], in assay [3], the “RG avg (relative growth)” value amounted to 0.01. Further, the “RL avg (relative luminescence)” value in assay [5] is given as −0.08.
For the molecule `Cc1ccccc1C(=O)Nc1nnc(-c2ccc3c(c2)CCCC3)o1` [F0608-614], the “RG avg (relative growth)” value in assay [3] is given as 0.08. The “RL avg (relative luminescence)” value in assay [5] is recorded as −0.05.
Regarding `CSc1ccccc1-c1nnc(NC(=O)c2cc(Cl)sc2Cl)o1` [F2645-67], the “RG avg (relative growth)” value in assay [3] was 0.02. In addition, the “RL avg (relative luminescence)” value in assay [5] is 0.37.
The like results for `COc1cc(-c2nnc(NC(=O)c3ccc(S(=O)(=O)N4CCCc5ccccc54)cc3)o2)cc(OC)c1OC` [F0559-320] were, in that order, 0.24 and −0.08.
`O=C(Nc1nnc(-c2cc(Cl)ccc2Cl)o1)c1ccc(C(=O)c2ccccc2)cc1` [F2518-24]: the “RG avg (relative growth)” value in assay [3] is −0.01. The “RL avg (relative luminescence)” value in assay [5] amounted to 0.06.
As to `O=C(Nc1nnc(-c2cc(Cl)ccc2Cl)o1)c1ccc(Br)s1` [F2518-41], the “RG avg (relative growth)” value in assay [3] is listed as 0.00. Besides, the “RL avg (relative luminescence)” value in assay [5] was −0.03.
With `COc1cc(-c2nnc(NC(=O)c3cccc(C(F)(F)F)c3)o2)cc(OC)c1OC` [F2517-37], the “RG avg (relative growth)” value in assay [3] is on record as −0.02. In assay [5], the “RL avg (relative luminescence)” value was −0.06.
The corresponding values for `O=C(Nc1nnc(-c2ccc(Br)cc2)o1)c1sc2ccccc2c1Cl` [F2518-484] are 0.02 and 0.02.
As to `CC(C)n1nccc1C(=O)Nc1nnc(-c2cc(Cl)sc2Cl)o1` [F1374-2902], in assay [3], the “RG avg (relative growth)” value is 0.00. For the same molecule, the “RL avg (relative luminescence)” value in assay [5] was determined as 0.33.
Take `O=C(Nc1nnc(-c2ccc3c(c2)CCCC3)o1)c1cccc(Cl)c1` [F0608-659]: the “RG avg (relative growth)” value in assay [3] was −0.05. The “RL avg (relative luminescence)” value in assay [5] is −0.08.
With `COc1ccc(-c2nnc(NC(=O)c3ccc(Br)s3)o2)cc1` [F1374-455], the “RG avg (relative growth)” value in assay [3] was determined as 0.03. Moreover, the “RL avg (relative luminescence)” value in assay [5] came to 0.33.
Regarding `O=C(Nc1nnc(-c2ccc3c(c2)CCCC3)o1)c1ccc(S(=O)(=O)N2CCOCC2)cc1` [F0608-560], the “RG avg (relative growth)” value in assay [3] is given as −0.07. The “RL avg (relative luminescence)” value in assay [5] is reported as −0.07.
On to `COc1cccc2cc(C(=O)Nc3nnc(-c4ccc(Br)s4)o3)oc12` [F5093-196], for which, in assay [3], the “RG avg (relative growth)” value is −0.01. The “RL avg (relative luminescence)” value in assay [5] is reported as −0.01.
